Results reported in ChEMBL document CHEMBL1909046, “DrugMatrix in vitro pharmacology data”.

What was measured:
[1] = DRUGMATRIX: Phosphodiesterase PDE4 enzyme inhibition (substrate: [3H]cAMP + cAMP); settings: u-937; Not Active = under 50% inhibition at 10 µM
[2] = biological target: 5-hydroxytryptamine receptor 1B (Rattus norvegicus, UniProt P28564); format: cell membranes, Wistar, Cerebral cortex, Membrane; note: in other assays of this panel Not Active means under 50% inhibition at 10 µM
[3] = biological target: T1, Cholecystokinin receptor type A (Homo sapiens, UniProt P32238); format: cell membranes, Membrane; settings: 1321-n1; note: in other assays of this panel Not Active means under 50% inhibition at 10 µM
T1 sequence (P32238 whole entry): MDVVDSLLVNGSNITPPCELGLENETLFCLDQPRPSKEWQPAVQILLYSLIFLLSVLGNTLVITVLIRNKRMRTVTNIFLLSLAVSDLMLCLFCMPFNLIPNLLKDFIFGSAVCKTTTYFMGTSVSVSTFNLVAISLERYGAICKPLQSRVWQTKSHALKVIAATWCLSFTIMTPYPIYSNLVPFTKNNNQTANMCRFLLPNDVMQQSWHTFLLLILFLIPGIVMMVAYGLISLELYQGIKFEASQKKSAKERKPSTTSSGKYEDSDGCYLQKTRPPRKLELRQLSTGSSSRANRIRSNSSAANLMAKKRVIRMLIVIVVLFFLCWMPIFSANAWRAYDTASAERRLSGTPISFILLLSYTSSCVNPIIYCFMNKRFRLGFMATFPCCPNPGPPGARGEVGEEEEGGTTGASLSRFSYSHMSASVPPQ

[4] = biological target: Cannabinoid receptor 1 (Homo sapiens, UniProt P21554); format: cell membranes, Chem-1, Membrane; settings: chem-1; note: in other assays of this panel Not Active means under 50% inhibition at 10 µM
[5] = DRUGMATRIX: Tumor Necrosis Factor (TNF), Non-Selective radioligand binding (ligand: [125I] TNF-alpha); format: cell membranes, Membrane; settings: u-937; Not Active = under 50% inhibition at 10 µM
[6] = biological target: T2, Adenosine receptor A1 (Homo sapiens, UniProt P30542); format: cell membranes, CHO, Membrane; settings: cho;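 note: radioligand binding assay at the adenosine A1 receptor, with DPCPX serving as the labelled ligand; in other assays of this panel Not Active means under 50% inhibition at 10 µM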
T2 sequence (P30542 whole entry): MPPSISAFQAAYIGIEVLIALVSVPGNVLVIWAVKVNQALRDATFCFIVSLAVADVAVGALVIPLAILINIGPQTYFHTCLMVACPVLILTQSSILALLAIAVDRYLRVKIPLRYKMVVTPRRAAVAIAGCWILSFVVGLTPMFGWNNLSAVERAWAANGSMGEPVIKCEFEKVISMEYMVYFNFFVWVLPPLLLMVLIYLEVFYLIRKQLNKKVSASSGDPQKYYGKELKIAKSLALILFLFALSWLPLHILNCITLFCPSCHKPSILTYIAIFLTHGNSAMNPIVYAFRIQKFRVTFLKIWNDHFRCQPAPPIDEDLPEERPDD

Cannabinoid receptor 1, sequence (P21554 whole entry): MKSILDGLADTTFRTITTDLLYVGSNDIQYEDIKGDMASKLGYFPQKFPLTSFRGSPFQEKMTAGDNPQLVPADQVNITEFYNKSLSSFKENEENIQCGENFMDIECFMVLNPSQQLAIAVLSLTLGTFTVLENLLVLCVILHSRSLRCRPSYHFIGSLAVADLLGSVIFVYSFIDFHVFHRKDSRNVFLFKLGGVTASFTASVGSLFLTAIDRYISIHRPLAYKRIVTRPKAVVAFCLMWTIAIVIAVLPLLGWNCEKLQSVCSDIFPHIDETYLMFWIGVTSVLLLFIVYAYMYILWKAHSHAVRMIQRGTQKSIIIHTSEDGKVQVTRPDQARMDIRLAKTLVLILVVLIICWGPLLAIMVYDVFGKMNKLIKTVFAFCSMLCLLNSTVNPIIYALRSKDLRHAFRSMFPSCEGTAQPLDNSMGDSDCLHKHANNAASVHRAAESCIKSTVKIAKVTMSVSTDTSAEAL
5-hydroxytryptamine receptor 1B, sequence (P28564 whole entry): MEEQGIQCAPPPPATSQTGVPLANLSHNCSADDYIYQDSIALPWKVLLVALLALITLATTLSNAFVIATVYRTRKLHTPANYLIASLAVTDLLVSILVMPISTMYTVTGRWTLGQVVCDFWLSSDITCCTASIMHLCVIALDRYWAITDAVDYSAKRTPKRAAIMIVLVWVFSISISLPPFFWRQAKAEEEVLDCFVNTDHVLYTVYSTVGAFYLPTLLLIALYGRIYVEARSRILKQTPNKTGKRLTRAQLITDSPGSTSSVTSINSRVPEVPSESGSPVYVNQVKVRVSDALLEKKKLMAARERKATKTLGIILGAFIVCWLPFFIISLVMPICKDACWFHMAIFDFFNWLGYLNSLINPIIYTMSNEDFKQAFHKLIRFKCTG

COc1cc(N)c(Cl)cc1C(=O)NC1CCN(CCCOc2ccc(F)cc2)CC1OC (centres undefined) [CISAPRIDE]
Not Active: IC50 [1] | Ki [1] | IC50 [2] | IC50 [3] | IC50 [4] | IC50 [5] | Ki [5] | IC50 [6]

CCC(=O)O[C@]1(C(=O)CCl)[C@@H](C)C[C@H]2[C@@H]3CCC4=CC(=O)C=C[C@]4(C)[C@@]3(F)[C@@H](O)C[C@@]21C [CLOBETASOL PROPIONATE]
Not Active: IC50 [1] | Ki [1] | IC50 [2] | IC50 [3] | IC50 [4] | IC50 [5] | Ki [5] | IC50 [6]

O=C1CN=C(c2ccccc2Cl)c2cc([N+](=O)[O-])ccc2N1 [CLONAZEPAM]
Not Active: IC50 [1] | Ki [1] | IC50 [2] | IC50 [3] | IC50 [4] | IC50 [5] | Ki [5] | IC50 [6]

Nc1ccn([C@@H]2O[C@H](CO)[C@@H](O)[C@@H]2O)c(=O)n1 [CYTARABINE]
Not Active: IC50 [1] | Ki [1] | IC50 [2] | IC50 [3] | IC50 [4] | IC50 [5] | Ki [5] | IC50 [6]

C[C@@H]1C[C@H]2[C@@H]3CCC4=CC(=O)C=C[C@]4(C)[C@@]3(F)[C@@H](O)C[C@]2(C)[C@H]1C(=O)CO [DESOXIMETASONE]
Not Active: IC50 [1] | Ki [1] | IC50 [2] | IC50 [3] | IC50 [4] | IC50 [5] | Ki [5] | IC50 [6]

C[C@@H]1C[C@H]2[C@@H]3CCC4=CC(=O)C=C[C@]4(C)[C@@]3(F)[C@@H](O)C[C@]2(C)[C@@]1(O)C(=O)CO [DEXAMETHASONE]
Not Active: IC50 [1] | Ki [1] | IC50 [2] | IC50 [3] | IC50 [4] | IC50 [5] | Ki [5] | IC50 [6]

CN(C)CC[C@@H](c1ccc(Cl)cc1)c1ccccn1 [DEXCHLORPHENIRAMINE]
Not Active: IC50 [1] | Ki [1] | IC50 [2] | IC50 [3] | IC50 [4] | IC50 [5] | Ki [5] | IC50 [6]

C[C@@H]1CC[C@@]2(OC1)O[C@H]1[C@@H](O)[C@H]3[C@@H]4CC[C@H]5C[C@@H](O[C@@H]6O[C@H](CO)[C@H](O[C@@H]7O[C@H](CO)C(O)[C@H](O[C@@H]8OC[C@@H](O)[C@H](O)[C@H]8O)[C@H]7O[C@@H]7O[C@H](CO)[C@H](O)[C@H](O[C@@H]8O[C@H](CO)[C@@H](O)[C@H](O)[C@H]8O)[C@H]7O)[C@H](O)[C@H]6O)[C@H](O)C[C@]5(C)[C@H]4CC[C@]3(C)[C@H]1[C@@H]2C (some centres undefined) [DIGITONIN]
Not Active: IC50 [1] | Ki [1] | IC50 [2] | IC50 [3] | IC50 [4] | IC50 [5] | Ki [5] | IC50 [6]

OC(CCCN1CCCCC1)(c1ccccc1)c1ccccc1 [DIPHENIDOL]
Not Active: IC50 [1] | Ki [1] | IC50 [2] | IC50 [3] | IC50 [4] | IC50 [5] | Ki [5] | IC50 [6]

C[C@H]1O[C@@H](n2cc(F)c(=O)[nH]c2=O)[C@H](O)[C@@H]1O [DOXIFLURIDINE]
Not Active: IC50 [1] | Ki [1] | IC50 [2] | IC50 [3] | IC50 [4] | IC50 [5] | Ki [5] | IC50 [6]

Cn1c(=O)c2c(ncn2CC(O)CO)n(C)c1=O (centres undefined) [DYPHYLLINE]
Not Active: IC50 [1] | Ki [1] | IC50 [2] | IC50 [3] | IC50 [4] | IC50 [5] | Ki [5] | IC50 [6]

CC[C@H]1CN2CCc3cc(OC)c(OC)cc3[C@@H]2C[C@@H]1C[C@H]1NCCc2cc(OC)c(OC)cc21 [EMETINE]
Not Active: IC50 [1] | Ki [1] | IC50 [2] | IC50 [3] | IC50 [4] | IC50 [5] | Ki [5] | IC50 [6]

COC(=O)CCc1ccc(OCC(O)CNC(C)C)cc1 (centres undefined) [ESMOLOL]
Not Active: IC50 [1] | Ki [1] | IC50 [2] | IC50 [3] | IC50 [4] | IC50 [5] | Ki [5] | IC50 [6]

CCC1(C)CC(=O)NC1=O (centres undefined) [ETHOSUXIMIDE]
Not Active: IC50 [1] | Ki [1] | IC50 [2] | IC50 [3] | IC50 [4] | IC50 [5] | Ki [5] | IC50 [6]

C#C[C@]1(OC(C)=O)CC[C@H]2[C@@H]3CCC4=C[C@@H](OC(C)=O)CC[C@@H]4[C@H]3CC[C@@]21C [ETHYNODIOL DIACETATE]
Not Active: IC50 [1] | Ki [1] | IC50 [2] | IC50 [3] | IC50 [4] | IC50 [5] | Ki [5] | IC50 [6]

COc1cc([C@@H]2c3cc4c(cc3[C@@H](O[C@@H]3O[C@@H]5CO[C@@H](C)O[C@H]5[C@H](O)[C@H]3O)[C@H]3COC(=O)[C@H]23)OCO4)cc(OC)c1O [ETOPOSIDE]
Not Active: IC50 [1] | Ki [1] | IC50 [2] | IC50 [3] | IC50 [4] | IC50 [5] | Ki [5] | IC50 [6]

C=CCc1ccc(O)c(OC)c1 [EUGENOL]
Not Active: IC50 [1] | Ki [1] | IC50 [2] | IC50 [3] | IC50 [4] | IC50 [5] | Ki [5] | IC50 [6]

CC(C(=O)O)c1cccc(Oc2ccccc2)c1 (centres undefined) [FENOPROFEN]
Not Active: IC50 [1] | Ki [1] | IC50 [2] | IC50 [3] | IC50 [4] | IC50 [5] | Ki [5] | IC50 [6]

CC(C)(C)NC(=O)[C@H]1CC[C@H]2[C@@H]3CC[C@H]4NC(=O)C=C[C@]4(C)[C@H]3CC[C@]12C [FINASTERIDE]
Not Active: IC50 [1] | Ki [1] | IC50 [2] | IC50 [3] | IC50 [4] | IC50 [5] | Ki [5] | IC50 [6]

COc1ccc2c3c1O[C@H]1C[C@@H](O)C=C[C@@]31CCN(C)C2 [GALANTAMINE]
Not Active: IC50 [1] | Ki [1] | IC50 [2] | IC50 [3] | IC50 [4] | IC50 [5] | Ki [5] | IC50 [6]

Nc1ccn([C@@H]2O[C@H](CO)[C@@H](O)C2(F)F)c(=O)n1 [GEMCITABINE]
Not Active: IC50 [1] | Ki [1] | IC50 [2] | IC50 [3] | IC50 [4] | IC50 [5] | Ki [5] | IC50 [6]

CC(C)=CCC/C(C)=C/CO [GERANIOL]
Not Active: IC50 [1] | Ki [1] | IC50 [2] | IC50 [3] | IC50 [4] | IC50 [5] | Ki [5] | IC50 [6]

N=C(N)NC(=O)Cc1c(Cl)cccc1Cl [GUANFACINE]
Not Active: IC50 [1] | Ki [1] | IC50 [2] | IC50 [3] | IC50 [4] | IC50 [5] | Ki [5] | IC50 [6]
